Measurements reported in US12186283B2, “Bismuth-thiol compositions and methods of use” (Microbion Corporation, priority 2018, dated 2025).
Converted amounts (≈) assume the structure as drawn. Read-outs that look alike come from different tables or passages of the source.

Legend:
[1] = system: Burkholderia spp. (B. cepacia complex); assay: MIC against CF isolates (Example 5); type: cell-based; conditions: Table 4A
[2] = system: E. coli ATCC 25922; conditions: control strain ATCC 25922 E. coli; per CLSI M100-S24 or provided by Microbion; cited from earlier work
[3] = system: S. aureus ATCC 29213; conditions: control strain ATCC 29213 S. aureus; per CLSI M100-S24 or provided by Microbion; cited from earlier work
[4] = system: Enterococcus spp. (E. faecalis, E. faecium); assay: Broth microdilution MIC (Example 11); type: cell-based; conditions: Enterococcus faecium, VRE, E. faecium MMX 485; VRE, vanA, LevR, CipR, EryR; read-out: MIC
[5] = system: beta-hemolytic streptococci (S. pyogenes, S. agalactiae); assay: Broth microdilution MIC (Example 11); type: cell-based, Streptococcus pyogenes, Streptococcus agalactiae
[6] = system: Staphylococcus aureus (MRSA); conditions: S. aureus MMX 101 (ATCC 29213); cited from earlier work
[7] = system: S. pneumoniae (pneumococci); conditions: S. pneumoniae MMX 6837 (ATCC 49619); cited from earlier work
[8] = system: S. aureus ATCC 29213; assay: Broth microdilution MIC, ATCC QC organism (Example 12); type: cell-based, Staphylococcus aureus; conditions: S. aureus ATCC 29213, QC organism
Method: The in vitro activity of BisEDT and two additional bismuth-thiol investigational agents (MB-2B and MB-6) was determined for isolates of Escherichia coli, Klebsiella pneumoniae, Pseudomonas aeruginosa and Acinetobacter baumannii characterized for extended-spectrum β-lactamases (ESBL) and/or carbapenem resistance. In addition, vancomycin-intermediate Staphylococcus aureus (VISA) were evaluated. The majority of the isolates tested in the current study were multidrug-resistant (MDR) as defined by resistance to at least three different antibiotic classes. Susceptibility to the investigational compounds and relevant comparators was determined by broth microdilution conducted in accordance with guidelines from the Clinical and Laboratory Standards Institute (CLSI; 2,3).

[9] = system: Escherichia coli; conditions: E. coli ATCC 25922, QC organism; cited from earlier work
[10] = system: Pseudomonas aeruginosa; conditions: P. aeruginosa ATCC 27853, QC organism; cited from earlier work
[11] = system: S. aureus ATCC 29213; conditions: S. aureus ATCC 29213, QC organism; cited from earlier work
[12] = system: Escherichia coli; assay: Broth microdilution MIC (Example 12)
[13] = system: Klebsiella pneumoniae; assay: Broth microdilution MIC (Example 12)
[14] = system: Pseudomonas aeruginosa; assay: Broth microdilution MIC (Example 12)
[15] = system: Acinetobacter baumannii; assay: Broth microdilution MIC (Example 12)
[16] = system: vancomycin-intermediate Staphylococcus aureus (VISA); assay: Broth microdilution MIC (Example 12)
[17] = system: S. pneumoniae (pneumococci); assay: Broth microdilution MIC (Example 11); type: cell-based, Streptococcus pneumoniae

## NCC[C@H](O)C(=O)N[C@@H]1C[C@H](N)[C@@H](O[C@H]2O[C@H](CN)[C@@H](O)[C@H](O)[C@H]2O)[C@H](O)[C@H]1O[C@H]1O[C@H](CO)[C@@H](O)[C@H](N)[C@H]1O [Amikacin]
[1]; strain AU197, B. cenocepacia (B cepacia complex)
  MIC: > 64 µg/mL
[1]; strain BC5b, B. multivorans (B cepacia complex)
  MIC: > 64 µg/mL
[1]; strain BC15, B. cenocepacia (B cepacia complex)
  MIC: > 64 µg/mL
[1]; strain BC17, B. cepacia (B cepacia complex)
  MIC: > 64 µg/mL
[2]
  Expected MIC: acceptable range: 0.5 to 4 µg/mL
  Expected MIC: goal: 1 to 2 µg/mL
[3]
  Expected MIC: acceptable range: 1 to 4 µg/mL
  Expected MIC: goal: 2 µg/mL

## CC[C@H]1OC(=O)[C@H](C)[C@@H](O[C@H]2C[C@@](C)(OC)[C@@H](O)[C@H](C)O2)[C@H](C)[C@@H](O[C@@H]2O[C@H](C)C[C@H](N(C)C)[C@H]2O)[C@](C)(O)C[C@@H](C)C(=O)[C@H](C)[C@@H](O)[C@]1(C)O [Erythromycin]
[4]
  MIC: > 64 µg/mL
[5]; S. agalactiae MMX 3741, ERY^R CC^R, read-out: MIC
  MIC: 8 µg/mL (≈ 10.9 µM)
[5]; S. agalactiae MMX 3743, ERY^R CC^R, read-out: MIC
  MIC: > 8 µg/mL
[5]; S. agalactiae MMX 4077, ERY^R CC^R, read-out: MIC
  MIC: > 8 µg/mL
[5]; S. agalactiae MMX 4079, ERY^R CC^R Pen^R MEM^R, read-out: MIC
  MIC: > 8 µg/mL
[5]; S. agalactiae MMX 4086, ERY^R CC^R, read-out: MIC
  MIC: > 8 µg/mL
[6]
  CLSI QC range (MIC): (0.25-1) μg/mL
[7]
  MIC, CLSI QC range: (0.03-0.12) μg/mL

## C[C@H]1COc2c(N3CCN(C)CC3)c(F)cc3c(=O)c(C(=O)O)cn1c23 [LVX]
[8]
  MIC: 0.06 µg/mL (≈ 0.166 µM)
[9]
  MIC, QC range: (0.008-0.06) μg/mL
[10]
  MIC, QC range: (0.5-4) μg/mL
[11]
  MIC, QC range: (0.06-0.5) μg/mL
[12]; E. coli ATCC 25922, QC organism
  MIC: ≤0.008 µg/mL
[12]; E. coli ATCC 35218, QC organism
  MIC: ≤0.008 µg/mL
[12]; Escherichia coli ATCC 35218, ESBL
  MIC: ≤0.008 µg/mL
[12]; Escherichia coli ATCC BAA-2471, NDM
  MIC: >8 µg/mL
[12]; Escherichia coli CDC 114, ESBL/KPC
  MIC: 4 µg/mL (≈ 11.1 µM)
[12]; Escherichia coli CDC 118, ESBL/NDM
  MIC: 8 µg/mL (≈ 22.1 µM)
[12]; Escherichia coli CDC 435, NDM
  MIC: >8 µg/mL
[12]; Escherichia coli CDC 451, KPC
  MIC: >8 µg/mL
[12]; Escherichia coli CDC 503, ESBL/NDM
  MIC: >8 µg/mL
[12]; Escherichia coli MMX 5745, KPC
  MIC: 8 µg/mL (≈ 22.1 µM)
[12]; Escherichia coli MMX 5755, ESBL
  MIC: 8 µg/mL (≈ 22.1 µM)
[12]; Escherichia coli MMX 5756, ESBL
  MIC: 4 µg/mL (≈ 11.1 µM)
[12]; Escherichia coli MMX 5758, ESBL
  MIC: 8 µg/mL (≈ 22.1 µM)
[13]; K. pneumoniae ATCC BAA-1705, QC organism
  MIC: >8 µg/mL
[13]; Klebsiella pneumoniae ATCC BAA-1705, ESBL/KPC
  MIC: >8 µg/mL
[13]; Klebsiella pneumoniae CDC 112, KPC
  MIC: 4 µg/mL (≈ 11.1 µM)
[13]; Klebsiella pneumoniae CDC 113, ESBL/KPC
  MIC: 4 µg/mL (≈ 11.1 µM)
[13]; Klebsiella pneumoniae CDC 115, ESBL/KPC
  MIC: >8 µg/mL
[13]; Klebsiella pneumoniae CDC 120, ESBL/KPC
  MIC: >8 µg/mL
[13]; Klebsiella pneumoniae CDC 126, ESBL/KPC
  MIC: 0.015 µg/mL (≈ 0.0415 µM)
[13]; Klebsiella pneumoniae CDC 129, ESBL/KPC
  MIC: >8 µg/mL
[13]; Klebsiella pneumoniae CDC 135, ESBL/VIM
  MIC: >8 µg/mL
[13]; Klebsiella pneumoniae CDC 138, ESBL/NDM
  MIC: >8 µg/mL
[13]; Klebsiella pneumoniae CDC 158, ESBL/NDM/OXA
  MIC: 4 µg/mL (≈ 11.1 µM)
[13]; Klebsiella pneumoniae MMX 9029, ESBL
  MIC: 0.12 µg/mL (≈ 0.332 µM)
[14]; P. aeruginosa ATCC 27853, QC organism
  MIC: 0.5 µg/mL (≈ 1.38 µM)
[14]; Pseudomonas aeruginosa CDC 230, VIM/OXA
  MIC: 8 µg/mL (≈ 22.1 µM)
[14]; Pseudomonas aeruginosa CDC 231, KPC/OXA
  MIC: >8 µg/mL
[14]; Pseudomonas aeruginosa CDC 241, IMP/OXA
  MIC: 8 µg/mL (≈ 22.1 µM)
[14]; Pseudomonas aeruginosa CDC 246, NDM/OXA
  MIC: >8 µg/mL
[14]; Pseudomonas aeruginosa CDC 250, NDM/OXA
  MIC: >8 µg/mL
[14]; Pseudomonas aeruginosa CDC 356, KPC
  MIC: 0.12 µg/mL (≈ 0.332 µM)
[14]; Pseudomonas aeruginosa CDC 439, IMP
  MIC: 8 µg/mL (≈ 22.1 µM)
[14]; Pseudomonas aeruginosa CDC 444, VIM
  MIC: 8 µg/mL (≈ 22.1 µM)
[14]; Pseudomonas aeruginosa CDC 457, VIM
  MIC: >8 µg/mL
[14]; Pseudomonas aeruginosa CDC 516, KPC/AmpC
  MIC: 0.25 µg/mL (≈ 0.692 µM)
[14]; Pseudomonas aeruginosa CDC 518, KPC/AmpC
  MIC: >8 µg/mL
[15]; Acinetobacter baumannii CDC 273, ESBL/OXA
  MIC: >8 µg/mL
[15]; Acinetobacter baumannii CDC 274, ESBL/OXA
  MIC: 8 µg/mL (≈ 22.1 µM)
[15]; Acinetobacter baumannii CDC 275, ESBL/OXA
  MIC: 4 µg/mL (≈ 11.1 µM)
[15]; Acinetobacter baumannii CDC 277, ESBL/OXA
  MIC: 8 µg/mL (≈ 22.1 µM)
[15]; Acinetobacter baumannii CDC 284, ESBL/OXA
  MIC: 8 µg/mL (≈ 22.1 µM)
[15]; Acinetobacter baumannii CDC 307, OXA
  MIC: 8 µg/mL (≈ 22.1 µM)
[15]; Acinetobacter baumannii CDC 308, ESBL/OXA
  MIC: 4 µg/mL (≈ 11.1 µM)
[15]; Acinetobacter baumannii CDC 311, OXA
  MIC: 2 µg/mL (≈ 5.53 µM)
[15]; Acinetobacter baumannii CDC 312, OXA
  MIC: 2 µg/mL (≈ 5.53 µM)
[15]; Acinetobacter baumannii CDC 313, ESBL/OXA
  MIC: 2 µg/mL (≈ 5.53 µM)
[15]; Acinetobacter baumannii NCTC 13304, OXA
  MIC: 1 µg/mL (≈ 2.77 µM)
[16]; Staphylococcus aureus NRS 1 (hVISA)
  MIC: 4 µg/mL (≈ 11.1 µM)
[16]; Staphylococcus aureus NRS 2
  MIC: 4 µg/mL (≈ 11.1 µM)
[16]; Staphylococcus aureus NRS 3
  MIC: >8 µg/mL
[16]; Staphylococcus aureus NRS 4
  MIC: 4 µg/mL (≈ 11.1 µM)
[16]; Staphylococcus aureus NRS 13
  MIC: 0.12 µg/mL (≈ 0.332 µM)
[16]; Staphylococcus aureus NRS 18
  MIC: 4 µg/mL (≈ 11.1 µM)
[16]; Staphylococcus aureus NRS 22
  MIC: 8 µg/mL (≈ 22.1 µM)
[16]; Staphylococcus aureus NRS 24 (hVISA)
  MIC: >8 µg/mL
[16]; Staphylococcus aureus NRS 27
  MIC: 8 µg/mL (≈ 22.1 µM)

## Penicillin
[17]; S. pneumoniae MMX 880, Lev^R SXT^R CC^R Ery^R Pen^R
  MIC: 2 µg/mL
[17]; S. pneumoniae MMX 937, Mem^R SXT^R CC^R Ery^R Pen^R
  MIC: 4 µg/mL
[17]; S. pneumoniae MMX 3959, CC^R Ery^R
  MIC: 0.12 µg/mL
[17]; S. pneumoniae MMX 5440, Mem^R SXT^R CC^R Ery^R Pen^R
  MIC: 4 µg/mL
[17]; S. pneumoniae MMX 5445, Mem^R SXT^R CC^R Ery^R Pen^R
  MIC: 4 µg/mL
[17]; S. pneumoniae MMX 6837 (ATCC 49619), QC
  MIC: 0.25 µg/mL
[17]; S. pneumoniae MMX 8133, Mem^R SXT^R CC^R Ery^R Pen^R
  MIC: 4 µg/mL
[5]; S. agalactiae MMX 3741, ERY^R CC^R
  MIC: 0.03 µg/mL
[5]; S. agalactiae MMX 3743, ERY^R CC^R
  MIC: 0.06 µg/mL
[5]; S. agalactiae MMX 4077, ERY^R CC^R
  MIC: 0.06 µg/mL
[5]; S. agalactiae MMX 4079, ERY^R CC^R Pen^R MEM^R
  MIC: 2 µg/mL
[5]; S. agalactiae MMX 4086, ERY^R CC^R
  MIC: 0.06 µg/mL
[5]; S. pyogenes MMX 3068, Ery^R
  MIC: ≤0.008 µg/mL
[5]; S. pyogenes MMX 3820, ERY^R CLI^R
  MIC: ≤0.008 µg/mL
[5]; S. pyogenes MMX 3919, ERY^R
  MIC: ≤0.008 µg/mL
[5]; S. pyogenes MMX 3929, ERY^R CC^R
  MIC: ≤0.008 µg/mL
[5]; S. pyogenes MMX 5091, ERY^R CC^R
  MIC: ≤0.008 µg/mL
[7]
  MIC, CLSI QC range: (0.25-1) μg/mL
